Results as given in ChEMBL document CHEMBL4765406 (Eur J Med Chem, 2020).
Activity calls are given as the source filed them. The rule behind the calls is not given here.

Columns and labels:
[1] = target: T1, Tyrosine-protein kinase BTK (Homo sapiens, UniProt Q06187); experiment: Inhibition of BTK (unknown origin) using poly(Glu, Tyr) 4:1 as substrate incubated in presence of [gamma33P]ATP by image analyser
[2] = target: T1, Tyrosine-protein kinase BTK; experiment: Inhibition of BTK in human Ramos cells assessed as reduction in anti-human IgM F(ab)2-induced ERK phosphorylation preincubated for 10 mins followed by stimulated with antihuman IgM F(ab)2 incubated for 60 mins by Western blot analysis; assay type: cell-based; conditions: time 70.0 min
[3] = target: T1, Tyrosine-protein kinase BTK; experiment: Inhibition of BTK in human Ramos cells assessed as reduction in anti-human IgM F(ab)2-induced BCR mediated PLCgamma2 phosphorylation preincubated for 10 mins followed by stimulated with antihuman IgM F(ab)2 incubated for 60 mins by Western blot analysis; assay type: cell-based; conditions: time 70.0 min
[4] = target: T1, Tyrosine-protein kinase BTK; experiment: Inhibition of BTK in human Ramos cells assessed as reduction in anti-human IgM F(ab)2-induced BTK phosphorylation at Tyr223 residue preincubated for 10 mins followed by stimulated with antihuman IgM F(ab)2 incubated for 60 mins by Western blot analysis; assay type: cell-based; conditions: time 1.0 hrs
[5] = target: T1, Tyrosine-protein kinase BTK; experiment: Inhibition of BTK in human Ramos cells assessed as reduction in anti-human IgM F(ab)2-induced BTK phosphorylation at Tyr551 residue preincubated for 10 mins followed by stimulated with antihuman IgM F(ab)2 incubated for 60 mins by Western blot analysis; assay type: cell-based; conditions: time 70.0 min

T1 sequence (Q06187 whole entry): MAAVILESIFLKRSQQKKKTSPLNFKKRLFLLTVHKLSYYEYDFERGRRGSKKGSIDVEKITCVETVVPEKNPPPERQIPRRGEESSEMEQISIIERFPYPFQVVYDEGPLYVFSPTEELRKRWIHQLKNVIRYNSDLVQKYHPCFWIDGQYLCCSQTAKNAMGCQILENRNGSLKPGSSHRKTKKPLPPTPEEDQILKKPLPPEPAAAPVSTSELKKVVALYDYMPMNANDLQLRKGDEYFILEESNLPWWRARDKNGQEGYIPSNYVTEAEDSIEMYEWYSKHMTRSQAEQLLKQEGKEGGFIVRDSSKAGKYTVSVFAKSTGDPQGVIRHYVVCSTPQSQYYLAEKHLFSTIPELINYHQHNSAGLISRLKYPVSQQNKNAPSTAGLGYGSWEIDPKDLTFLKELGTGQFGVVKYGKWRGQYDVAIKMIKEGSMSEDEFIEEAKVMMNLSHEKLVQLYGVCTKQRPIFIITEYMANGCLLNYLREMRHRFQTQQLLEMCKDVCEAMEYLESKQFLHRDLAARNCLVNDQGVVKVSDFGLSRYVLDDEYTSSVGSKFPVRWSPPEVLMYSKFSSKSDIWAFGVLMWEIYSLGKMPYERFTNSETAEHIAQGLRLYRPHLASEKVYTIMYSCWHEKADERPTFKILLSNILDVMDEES

| IC50 [1] [nM] | inhibition [2] | inhibition [3] | inhibition [4] | inhibition [5] | Compound |
| --- | --- | --- | --- | --- | --- |
| > 20000 | – | – | – | – | c1cc2nc(-c3ccc4cn[nH]c4c3)nc(Nc3ccc(N4CCOCC4)cc3)c2[nH]1 |
| 369 | inactive | – | – | – | c1nc2c(Nc3ccc(N4CCOCC4)cc3)nc(-c3ccc4cn[nH]c4c3)cc2[nH]1 |
| 167 | – | – | – | – | c1cc(N2CCOCC2)ccc1Nc1nc(-c2ccc3cn[nH]c3c2)nc2[nH]ncc12 |
| 73 | – | – | – | – | c1nc2c(Nc3ccc(N4CCOCC4)cc3)nc(-c3ccc4cn[nH]c4c3)nc2[nH]1 |

Second part, the compound before the results:

| Compound | IC50 [1] [nM] | inhibition [2] | inhibition [3] | inhibition [4] | inhibition [5] |
| --- | --- | --- | --- | --- | --- |
| c1nc2c(Nc3ccc(N4CCOCC4)cc3)cc(-c3ccc4cn[nH]c4c3)nc2[nH]1 | 1450 | – | – | – | – |
| c1cn2cc(-c3ccc4cn[nH]c4c3)nc(Nc3ccc(N4CCOCC4)cc3)c2n1 [ENTOSPLETINIB] | 801 | Active | Active | Active | Active |
